We go through 46 molecules from patent US7671061B2, “Methods and compositions for treating pain” (Hydra Biosciences, Inc., priority 2005, dated 2010).

The target in one series is hERG (Homo sapiens, UniProt Q12809). In words: hERG patch clamp (Qpatch) selectivity. The following applies: for selectivity ratio: human, selective for TRPA1 over hERG.
Series [1] deals with T1, hTRPA1 (Homo sapiens, UniProt O75762, K186N).
T1 construct: expressed in transfected cells; host or cells: HEK293/TREx (Invitrogen), induced with tetracycline
T1 sequence (O75762 whole entry K186N): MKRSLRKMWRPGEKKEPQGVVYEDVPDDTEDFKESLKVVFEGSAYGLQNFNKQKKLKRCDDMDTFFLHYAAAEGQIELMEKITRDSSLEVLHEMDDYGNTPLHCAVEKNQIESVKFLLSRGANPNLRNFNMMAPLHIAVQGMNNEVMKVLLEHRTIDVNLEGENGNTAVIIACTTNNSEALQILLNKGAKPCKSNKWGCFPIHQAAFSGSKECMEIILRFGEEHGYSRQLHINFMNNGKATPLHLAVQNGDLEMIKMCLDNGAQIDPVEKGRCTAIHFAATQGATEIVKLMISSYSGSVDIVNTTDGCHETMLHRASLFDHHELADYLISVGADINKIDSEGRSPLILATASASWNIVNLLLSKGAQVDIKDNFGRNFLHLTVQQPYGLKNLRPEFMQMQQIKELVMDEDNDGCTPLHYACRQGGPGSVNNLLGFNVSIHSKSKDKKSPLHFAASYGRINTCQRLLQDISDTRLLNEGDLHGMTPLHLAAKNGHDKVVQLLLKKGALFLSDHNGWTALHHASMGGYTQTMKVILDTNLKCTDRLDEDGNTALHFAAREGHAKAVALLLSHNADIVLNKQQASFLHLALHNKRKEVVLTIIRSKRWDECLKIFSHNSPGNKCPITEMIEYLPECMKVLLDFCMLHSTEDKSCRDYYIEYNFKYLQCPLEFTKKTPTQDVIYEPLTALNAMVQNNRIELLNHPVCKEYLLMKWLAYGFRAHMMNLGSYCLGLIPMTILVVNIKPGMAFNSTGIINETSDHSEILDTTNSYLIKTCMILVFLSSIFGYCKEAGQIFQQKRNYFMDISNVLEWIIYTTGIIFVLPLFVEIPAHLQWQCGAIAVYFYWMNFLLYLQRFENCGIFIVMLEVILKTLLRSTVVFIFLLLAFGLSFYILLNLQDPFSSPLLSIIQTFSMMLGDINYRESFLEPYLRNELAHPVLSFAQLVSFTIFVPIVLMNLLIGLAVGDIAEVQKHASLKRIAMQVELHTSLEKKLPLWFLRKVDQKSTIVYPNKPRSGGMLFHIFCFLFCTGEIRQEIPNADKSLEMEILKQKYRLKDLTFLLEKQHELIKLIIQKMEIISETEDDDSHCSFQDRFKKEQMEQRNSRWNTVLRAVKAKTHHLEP
In words: High throughput Ca2+ fluorescence (Fluo4) assay, AITC stimulation. The class given is cell-based. The method in brief: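 Read-out is Fluo4 fluorescence, proportional to [Ca2+]i, over ~3 min after AITC challenge, following 2 min compound pre-exposure in HEK293/TREx cells induced with 1 μg/ml tetracycline. Dye: 1 μM, 60 min, room temperature.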

The target of series [2] is T1, hTRPA1. In words: TRPA1 patch clamp (perforated patch, AITC-activated current). The class given is cell-based. An excerpt: Patch clamp experiments permit the detection of currents through the TRPA1 channel in the cell line described above. To permit recording of current at a stable level and prevent the “rundown” observed by other labs, it is necessary to use the perforated patch technique, which prevents dialysis of the cytoplasm with the pipette solution. In normal whole-cell patch clamp recordings, a glass electrode is brought into contact with a single cell and a high-resistance (gigaohm) seal is established with the cell membrane. The membrane is then ruptured to achieve the whole-cell configuration, permitting control of the voltage of the cell membrane and measurement of currents flowing across the membrane using the amplifier attached to the electrode and resulting in the replacement of cytoplasm with the pipette solution. In contrast, in the perforated patch mode, an antibiotic, amphotericin, is present in the pipette solution and diffuses into contact with the cell after the seal is achieved, over the course of several minutes. The amphotericin forms ion-permeable pores in the membrane under the pipette, permitting passage of some ions but maintaining most native cytosolic components. A perfusion system permits control of the extracellular solution, including the addition of blockers and activators of the current. The current can be activated by addition of 5 μM AITC to the solution. […] In some cases, cells were grown in low density overnight on glass coverslips. Patch clamp recordings were made in the whole-cell mode with a holding potential of −40 mV. Every 5 seconds, a voltage ramp was applied from −120 to +100 mV, 400 ms in duration. Currents elicited were quantified at −80 mV and +80 mV. […] The external solution consisted of 150 mM NaCl, 4.5 mM KCl, 3 mM MgCl2, 10 mM HEPES, […], 1 mM EGTA, pH 7.4. Upon addition of AITC, TRPA1 current was induced only in TRPA1-expressing cells and not in parental HEK293 TREx cells. Removal of the AITC stimulus causes most of the current to go away. Potential blockers were tested for ability to block both inward and outward currents in the continued presence of AITC.
(In general: The patch-clamp technique gives a direct electrical read-out from membranes.)

Setting [3] is: Table 1, read-out: hTRPA1 Fluo4 IC50.
Where [4] appears, read: Table 1, read-out: hTRPA1 Patch IC50.
Setting [5] is: Table 2, read-out: hTRPA1 Fluor IC50.
Setting [6] is: Table 2, inward current, read-out: hTRPA1 Patch Inwd IC50.

hERG, sequence (Q12809 whole entry): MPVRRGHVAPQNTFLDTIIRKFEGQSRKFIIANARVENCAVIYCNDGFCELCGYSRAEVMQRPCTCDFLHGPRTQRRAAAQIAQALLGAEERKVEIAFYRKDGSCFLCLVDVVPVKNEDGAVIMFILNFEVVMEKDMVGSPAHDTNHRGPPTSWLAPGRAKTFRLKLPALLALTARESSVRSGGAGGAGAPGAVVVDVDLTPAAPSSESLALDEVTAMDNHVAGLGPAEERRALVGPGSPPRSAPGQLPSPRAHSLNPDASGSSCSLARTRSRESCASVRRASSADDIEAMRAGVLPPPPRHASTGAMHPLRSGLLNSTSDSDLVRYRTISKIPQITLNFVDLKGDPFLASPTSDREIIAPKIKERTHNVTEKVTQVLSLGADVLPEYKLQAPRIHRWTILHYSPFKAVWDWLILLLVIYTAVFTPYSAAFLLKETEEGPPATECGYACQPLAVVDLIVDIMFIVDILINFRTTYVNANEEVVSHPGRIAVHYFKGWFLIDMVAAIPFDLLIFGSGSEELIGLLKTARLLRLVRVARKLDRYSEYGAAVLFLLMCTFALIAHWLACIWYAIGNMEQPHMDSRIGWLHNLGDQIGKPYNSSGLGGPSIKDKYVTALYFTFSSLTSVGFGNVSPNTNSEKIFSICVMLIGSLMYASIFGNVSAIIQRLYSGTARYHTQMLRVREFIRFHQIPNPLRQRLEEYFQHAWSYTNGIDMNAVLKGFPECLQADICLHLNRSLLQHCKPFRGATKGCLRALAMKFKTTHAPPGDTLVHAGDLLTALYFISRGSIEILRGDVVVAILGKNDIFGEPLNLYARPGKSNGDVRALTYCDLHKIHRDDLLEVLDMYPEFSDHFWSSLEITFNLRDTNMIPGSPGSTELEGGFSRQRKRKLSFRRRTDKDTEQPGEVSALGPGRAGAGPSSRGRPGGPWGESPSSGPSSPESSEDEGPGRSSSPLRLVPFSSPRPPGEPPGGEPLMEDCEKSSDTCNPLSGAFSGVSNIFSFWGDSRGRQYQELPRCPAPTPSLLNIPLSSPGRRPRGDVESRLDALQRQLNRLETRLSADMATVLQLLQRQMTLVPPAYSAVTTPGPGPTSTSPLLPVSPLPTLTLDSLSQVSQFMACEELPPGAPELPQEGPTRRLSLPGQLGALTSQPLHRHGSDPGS

A word on the IC50: it is the concentration at which inhibition is half-maximal. As for `CCOC(=O)C1=C(c2ccccc2)NC(=S)NC1c1ccccc1Cl` (centres unmarked), the IC50 against hERG (hERG Qpatch IC50 (nM), Table 1) is at least 20000 nM; at hTRPA1 [1] (setting [3]), above 10 µM; on hTRPA1 [2] (setting [4]), at most 5 µM. Moreover, the selectivity ratio at hERG (Table 1) was at least 10.
The corresponding values for `CCOC(=O)C1=C(c2ccccc2)NC(=S)NC1c1ccccc1Br` (centres unmarked) are above 10000 nM, above 10 µM, at most 5 µM and at least 5.
`Cn1c(=O)c2c(ncn2CC(=O)Nc2ccc(Br)cc2)n(C)c1=O` [Compound 202]: the “selective for TRPA1 over hERG” value at hERG (Table 2) is at least 5 fold. In addition, the half-inhibitory concentration (IC50) is above 10000 nM against hERG (hERG IC50 (nM), Table 2); at most 5 µM at hTRPA1 [1] (setting [5]); at most 5 µM at hTRPA1 [2] (setting [6]).
Consider `Cn1c(=O)c2c(ncn2CC(=O)Nc2ccc(F)cc2)n(C)c1=O` [Compound 209], for which the IC50 at hTRPA1 [1] (setting [5]) was at most 10 µM; on hTRPA1 [2] (setting [6]) it was above 10 µM.
On to `Cn1c(=O)c2c(ncn2CC(=O)Nc2ccc([N+](=O)[O-])cc2)n(C)c1=O` [Compound 210], for which the values for the IC50 on hTRPA1 [1] (setting [5]) and on hTRPA1 [2] (setting [6]) were at least 20 µM and at most 10 µM, respectively.
Consider `Cn1c(=O)c2c(ncn2CC(=O)Nc2ccncc2)n(C)c1=O` [Compound 211], for which the IC50 at hTRPA1 [1] (setting [5]) and at hTRPA1 [2] (setting [6]) was above 10 µM each time.
Regarding `Cn1c(=O)c2c(ncn2CC(=O)Nc2ccc(C(N)=O)cc2)n(C)c1=O` [Compound 212], the IC50 at hTRPA1 [1] (setting [5]) and at hTRPA1 [2] (setting [6]) was above 10 µM in each case.
`Cn1c(=O)c2c(ncn2CC(=O)Nc2ccc3ccccc3c2)n(C)c1=O` [Compound 213]: the IC50 on hTRPA1 [1] (setting [5]) was at most 10 µM; on hTRPA1 [2] (setting [6]) it was above 10 µM.
Regarding `Cn1c(=O)c2c(ncn2CC(=O)Nc2ccc(C#N)cc2)n(C)c1=O` [Compound 214], the IC50 on hTRPA1 [1] (setting [5]) and on hTRPA1 [2] (setting [6]) was at most 10 µM in each case.
In the case of `Cn1c(=O)c2c(ncn2CC(=O)Nc2ccc(OCc3ccccc3)cc2)n(C)c1=O` [Compound 224], the IC50 at hTRPA1 [1] (setting [5]) was at most 1 µM; at hTRPA1 [2] (setting [6]), at most 5 µM.
Take `Cn1c(=O)c2c(ncn2CC(=O)Nc2nccs2)n(C)c1=O` [Compound 225]: the IC50 at hTRPA1 [1] (setting [5]) and at hTRPA1 [2] (setting [6]) was above 10 µM throughout.
For `Cn1c(=O)c2c(ncn2CC(=O)Nc2ccc(S(N)(=O)=O)cc2)n(C)c1=O` [Compound 228], the IC50 at hTRPA1 [1] (setting [5]) and at hTRPA1 [2] (setting [6]) was above 10 µM throughout.
Regarding `COc1cc([N+](=O)[O-])ccc1NC(=O)Cn1cnc2c1c(=O)n(C)c(=O)n2C` [Compound 229], the IC50 was at most 5 µM at hTRPA1 [1] (setting [5]) and at most 1 µM on hTRPA1 [2] (setting [6]).
For `Cn1c(=O)c2c(ncn2CC(=O)Nc2nc(-c3ccccc3)cs2)n(C)c1=O` [Compound 230], in that order: at most 10 µM and at most 10 µM.
For `Cc1ccc2nc(NC(=O)Cn3cnc4c3c(=O)n(C)c(=O)n4C)sc2c1` [Compound 233], in that order: at most 5 µM and at most 5 µM.
The corresponding values for `COc1ccc2nc(NC(=O)Cn3cnc4c3c(=O)n(C)c(=O)n4C)sc2c1` [Compound 234] are at most 5 µM and at most 10 µM.
With `CC(C)Cc1nnc(NC(=O)Cn2cnc3c2c(=O)n(C)c(=O)n3C)s1` [Compound 235], the results for the IC50 on hTRPA1 [1] (setting [5]) and on hTRPA1 [2] (setting [6]) were above 10 µM and at most 10 µM, respectively.
Regarding `Cn1c(=O)c2c(ncn2CC(=O)Nc2ccc3c(c2)OCO3)n(C)c1=O` [Compound 237], the IC50 is above 10 µM at hTRPA1 [1] (setting [5]) and at most 10 µM at hTRPA1 [2] (setting [6]).
For `Cn1c(=O)c2c(ncn2CC(=O)Nc2ccc(Nc3ccccc3)cc2)n(C)c1=O` [Compound 250], in that order: at most 5 µM and at most 1 µM.
Take `Cn1c(=O)c2c(ncn2CC(=O)Nc2ccc(Cl)cc2)n(C)c1=O` [Compound 251]: the IC50 at hTRPA1 [1] (setting [5]) is at most 5 µM; at hTRPA1 [2] (setting [6]) it was at most 1 µM.
The corresponding values for `Cn1c(=O)c2c(ncn2CC(=O)Nc2ccc(N3CCCCC3)cc2)n(C)c1=O` [Compound 252] are at most 5 µM and at most 10 µM.
For `Cn1c(=O)c2c(ncn2CC(=O)Nc2ccc(SC(F)F)cc2)n(C)c1=O` [Compound 257], in that order: at most 1 µM and at most 1 µM.
As to `COc1ccc(CCNC(=O)Cn2cnc3c2c(=O)n(C)c(=O)n3C)cc1` [Compound 261, 2-(1,3-Dimethyl-2,6-dioxo-1,2,3,6-tetrahydropurin-7-yl)-N-[2-(4-methoxy-phenyl)-ethyl]-acetamide], the IC50 on hTRPA1 [1] (setting [5]) and on hTRPA1 [2] (setting [6]) was at most 5 µM in each case.
Regarding `Cn1c(=O)c2c(ncn2CC(=O)Nc2ccc(Oc3ccccc3)cc2)n(C)c1=O` [Compound 262], the results for the IC50 at hTRPA1 [1] (setting [5]) and at hTRPA1 [2] (setting [6]) were at most 5 µM and at most 0.5 µM, respectively.
Regarding `Cn1c(=O)c2c(ncn2CC(=O)Nc2ccc(C34CC5CC(CC(C5)C3)C4)cc2)n(C)c1=O` [Compound 264], the values for the IC50 at hTRPA1 [1] (setting [5]) and on hTRPA1 [2] (setting [6]) were at most 5 µM and at most 0.5 µM, respectively.
The corresponding values for `Cc1ccc(Oc2ccc(NC(=O)Cn3cnc4c3c(=O)n(C)c(=O)n4C)cc2)cc1` [Compound 266] are at most 5 µM and at most 0.5 µM.
Take `Cn1c(=O)c2c(ncn2CC(=O)Nc2ccc(Cl)c(C(F)(F)F)c2)n(C)c1=O` [Compound 267]: the IC50 on hTRPA1 [1] (setting [5]) and on hTRPA1 [2] (setting [6]) was at most 1 µM in each case.
Consider `Cn1c(=O)c2c(ncn2CC(=O)NCCc2ccc(Cl)cc2)n(C)c1=O` [Compound 268, N-[2-(4-Chlorophenyl)-ethyl]-2-(1,3-dimethyl-2,6-dioxo-1,2,3,6-tetrahydro-purin-7-yl)-acetamide], for which the IC50 was above 10 µM at hTRPA1 [1] (setting [5]) and at most 1 µM on hTRPA1 [2] (setting [6]).
For `CCCCc1ccc2nc(NC(=O)Cn3cnc4c3c(=O)n(C)c(=O)n4C)sc2c1` [Compound 269], in that order: at most 5 µM and at most 1 µM.
The corresponding values for `CCCc1ccc(-c2csc(NC(=O)Cn3cnc4c3c(=O)n(C)c(=O)n4C)n2)cc1` [Compound 274] are at most 5 µM and at most 1 µM.
On to `Cc1ccc(F)cc1NC(=O)Cn1cnc2c1c(=O)n(C)c(=O)n2C` [Compound 277], for which the 50% inhibitory concentration (IC50) on hTRPA1 [1] (setting [5]) is above 10 µM; at hTRPA1 [2] (setting [6]) it was at most 10 µM.
Consider `Cn1c(=O)c2c(ncn2CC(=O)Nc2ccc(F)c(Cl)c2)n(C)c1=O` [Compound 281], for which the IC50 was at most 5 µM at hTRPA1 [1] (setting [5]) and at most 10 µM at hTRPA1 [2] (setting [6]).
With `Cn1c(=O)c2c(ncn2CC(=O)Nc2ccc(-c3ccccc3)cc2)n(C)c1=O` [Compound 294], the values for the IC50 at hTRPA1 [1] (setting [5]) and on hTRPA1 [2] (setting [6]) were at most 5 µM and at most 1 µM, respectively.
For `Cn1c(=O)c2c(ncn2CC(=O)Nc2cccc(I)c2)n(C)c1=O` [Compound 295], in that order: at most 5 µM and at most 1 µM.
As to `CC(C(=O)Nc1ccc(Br)cc1)n1cnc2c1c(=O)n(C)c(=O)n2C` (centres unmarked) [Compound 296], the IC50 on hTRPA1 [1] (setting [5]) was at most 5 µM; at hTRPA1 [2] (setting [6]) it was at most 10 µM.
Consider `CCc1ccc(NC(=O)C(C)n2cnc3c2c(=O)n(C)c(=O)n3C)cc1` (centres unmarked) [Compound 299], for which the IC50 at hTRPA1 [1] (setting [5]) was at most 5 µM; at hTRPA1 [2] (setting [6]), at most 10 µM.
The corresponding values for `CC(C(=O)Nc1ccc(Cl)cc1)n1cnc2c1c(=O)n(C)c(=O)n2C` (centres unmarked) [Compound 300] are at most 5 µM and at most 1 µM.
For `Cn1c(=O)c2c(ncn2CC(=O)Nc2c(Cl)cccc2Cl)n(C)c1=O` [Compound 305], in that order: above 10 µM and at most 10 µM.
The corresponding values for `Cc1ccccc1CNC(=O)Cn1cnc2c1c(=O)n(C)c(=O)n2C` [Compound 313] are above 10 µM and at most 10 µM.
For the molecule `Cc1ccc(NC(=O)C(C)n2cnc3c2c(=O)n(C)c(=O)n3C)cc1` (centres unmarked) [Compound 315], the values for the IC50 at hTRPA1 [1] (setting [5]) and on hTRPA1 [2] (setting [6]) were above 10 µM and at most 1 µM, respectively.
For `Cn1c(=O)c2c(ncn2CC(=O)NCCSCc2ccccc2)n(C)c1=O` [Compound 329], in that order: at most 10 µM and at most 10 µM.
Regarding `Cn1c(=O)c2c(ncn2CC(=O)Nc2ccc(Br)cc2Cl)n(C)c1=O` [Compound 333], the IC50 is at most 5 µM at hTRPA1 [1] (setting [5]) and at most 1 µM on hTRPA1 [2] (setting [6]).
The corresponding values for `Cn1c(=O)c2c(ncn2CC(=O)Nc2ccc3c(c2)OC2(CCCC2)O3)n(C)c1=O` [Compound 344] are at most 5 µM and at most 5 µM.
Regarding `Cn1c(=O)c2c(ncn2CC(=O)NCC(C)(c2ccccc2)c2ccccc2)n(C)c1=O` [Compound 348], the IC50 at hTRPA1 [1] (setting [5]) was at most 5 µM; at hTRPA1 [2] (setting [6]) it was above 10 µM.
The corresponding values for `Cn1c(=O)c2c(ncn2CC(=O)Nc2ccccc2N2CCCC2)n(C)c1=O` [Compound 350] are above 10 µM and above 10 µM.
The corresponding values for `Cn1c(=O)c2c(ncn2CC(=O)Nc2ccc(Br)cc2F)n(C)c1=O` [Compound 371] are at most 5 µM and at most 5 µM.
